Data: patent publication US20250215105A1, “ANTI-CD39 ANTIBODY” (BrightPath Biotherapeutics Co., Ltd., priority 2022, published 2025)

Key:
[1] = system: human multiple myeloma-derived cell line MOLP-8; settings: day 24, last day of the study
Experimental: The human multiple myeloma-derived cell line MOLP-8 (DMSZ, ACC569) was subcutaneously transplanted (at 5×10^6 cells/mouse) into the right abdomen of each SCID mouse (C.B-17/Icr-scid/scidJcl, female, 7-week-old). On day 10 after transplantation, the mice were divided into groups based on tumor volume. Each antibody was administered in the doses listed in Table 3 twice a week for a total of seven doses starting on the day of grouping. Doxorubicin was administered twice a week for a total of 5 doses, starting 7 days after the grouping date. The tumor diameter and body weight were measured on day 24 after grouping. The tumor weight (n=5) data were analyzed using GraphPad Prism 9.2.0. One-way ANOVA and Tukey multiple comparisons test were used for statistical analysis. A significant difference was assumed when p**≤0.01.

activated Tregs = test: binding to activated Tregs (FACS); design: species or system human; settings: 10 μg/mL
Experimental: Purchased healthy human PBMCs (Wako Pure Chemicals, 33000-10M) were seeded at 2×10^5 cells/well in a 96 well U-bottom plate and cultured in the presence of 10 IU/mL IL-2 (NIPRO, 87-890) and 20 ng/mL IL-7 (PeproTech, 200-07) for 6 days. After 6 days, all the cells were collected and the Treg population was isolated using a CD4^+CD25^+CD127^dim/− Regulatory T Cell Isolation Kit II, human (Miltenyi, 130-094-775). Isolated Tregs were seeded at 2×10^4 cells/well in ab96 well U-bottom plate and stimulated for 6 days in the presence of 6×10^5 Dynabeads Human T-Activator CD3/CD28 (Gibco, DB11132-D), 10 IU/mL IL-2, and 20 ng/mL IL-7. The medium used was RPMI (Wako Pure Chemicals, 189-02025) supplemented with 10% Human Serum AB (Gemini Bio, 100-512, H46X00K), 1 mM penicillin streptomycin (Nacalai Tesque, 09367-34), 1 mM sodium pyruvate (Gibco, 11360070), 10 mM HEPES (Nacalai Tesque, 17557-94), GlutaMAX (Thermo Fisher, 35050061). 11360070), 10 mM HEPES (Nacalai Tesque, 17557-94), and GlutaMAX (Thermo Fisher, 35050061). After 6 days, Tregs were collected and analyzed for binding of each test antibody by using a FACSVerse. GraphPad Prism 9.2.0 was used for data analysis.

[2] = system: T cells in healthy human PBMCs; test: effects on T cells in cultured healthy PBMCs (cell type analysis, Treg removal, cytotoxic T cell induction); type: cell-based; settings: healthy PBMCs cultured with antibody for 5 days
Experimental: Purchased healthy human PBMCs (33000-10, Wako Pure Chemicals) were seeded at 5×10^5 cells/well in a 96 well U-bottom plate and cultured in the presence of 100 IU/mL IL-2 (87-890, NIPRO) and 20 ng/mL IL-7 (200-07, PeproTech) for 5 or 6 days to induce Tregs. The medium was washed out and the cells were cultured in the presence of CMV peptide A02 (TS-0010-1c, MBL), 10 IU/mL IL-2, and 20 ng/mL IL-7 for 11 days to induce antigen-specific cytotoxic T cells. The medium used was RPMI-1640 (189-0202, Wako Pure Chemicals) supplemented with 10% Human Serum AB (100-512, H46X00K, Gemini Bio), 1 mM penicillin streptomycin (09367-34, Nacalai Tesque), 1 mM sodium pyruvate (11360070, Gibco), 10 mM HEPES (17557-9, Nacalai Tesque), 1% GlutaMAX (35050061, Thermo Fisher), and 0.01 mM 2-mercaptoethanol (21438-82, Nacalai Tesque).
FACSVerse (BD) was used for various cell type analyses. Cells were counted using CountBright™ Absolute Counting Beads (C36950, Invitrogen). GraphPad Prism 9.2.0 was used for data analysis.
Substantially the same method as described in the Section 21.1 above was used to check a change in the percentage of various CD39^hi-expressing T cells by each glycan-modified anti-CD39 antibody.

[3] = system: A375 (malignant melanoma cancer cell line); test: cancer cell growth inhibition test with Treg-removed PBMCs; type: cell-based, human; settings: PBMCs pre-treated with 10 μg/ml antibody for 5 days, co-culture 5 days
Experimental: Purchased healthy human PBMCs (Wako Pure Chemicals, 33000-10M) were seeded at 5×10^5 cells/well in a 96 well U-bottom plate and cultured in the presence of 100 IU/mL IL-2 (NIPRO, 87-890), 20 ng/mL IL-7 (PeproTech, 200-07), and each test antibody at 10 μg/ml for 5 days. Then, 15,000 cells/well of A375 (malignant melanoma cancer cell line) overexpressing CMV antigen and RFP were mixed with 45,000 cells/well of PBMCs prepared after 5 days of culture, and the mixture was co-cultured at 37° C. and 5% CO2 for 5 days. At this time, the medium used was RPMI-1640 (189-0202, Wako Pure Chemicals) supplemented with 10% Human Serum AB (100-512, H46X00K, Gemini Bio), 1 mM penicillin streptomycin (09367-34, Nacalai Tesque), 1 mM sodium pyruvate (11360070, Gibco), 10 mM HEPES (17557-9, Nacalai Tesque), 1% GlutaMAX (35050061, Thermo Fisher), and 0.01 mM 2-mercaptoethanol (21438-82, Nacalai Tesque). The number of A375 cells was then determined by measuring the fluorescence value of RFP while using a Varioskan LUX multimode microplate reader (Thermo Fisher Scientific). GraphPad Prism 9.2.0 was used for data analysis.

| Compound | heart weight [1] | ability of binding to activated Tregs (activated Tregs) | CD39^hiCD4+FoxP3+ Tregs and effector Tregs (Fr. II) [2] | growth of human malignant melanoma A375 [3] |
| --- | --- | --- | --- | --- |
| COc1cccc2c1C(=O)c1c(O)c3c(c(O)c1C2=O)C[C@@](O)(C(=O)CO)C[C@@H]3O[C@H]1C[C@H](N)[C@H](O)[C@H](C)O1 [doxorubicin] | decreased | – | – | – |
| ipilimumab | – | not strong | significant loss of only effector Tregs (Fr. II) | no inhibitory effect |
| mogamulizumab | – | not strong | significant loss of only effector Tregs (Fr. II) | – |
